According to ChEMBL document CHEMBL6120987, “Identification of inhibitors targeting the FLT3-ITD mutation through 4D-QSAR, in vitro, and in silico” (Eur J Med Chem, 2025):

Assays:
[1] = system: MOLM-13; assay: Antiproliferative activity against FLT3-dependent human MOLM-13 cells expressing FLT3 ITD mutant assessed as reduction in cell viability incubated for 72 hrs by luminescence based assay; type: functional; details: MOLM-13, 72 h
[2] = target: T1, Receptor-type tyrosine-protein kinase FLT3 (Homo sapiens, UniProt P36888, ITD); assay: Inhibition of FLT3-ITD mutant (unknown origin) using biotin-tagged TK substrate preincubated for 10 mins followed by substrate and ATP addition and measured after 40 mins by ADP-Glo Kinase Assay
T1 sequence (P36888 whole entry, looked up, stated change not applied): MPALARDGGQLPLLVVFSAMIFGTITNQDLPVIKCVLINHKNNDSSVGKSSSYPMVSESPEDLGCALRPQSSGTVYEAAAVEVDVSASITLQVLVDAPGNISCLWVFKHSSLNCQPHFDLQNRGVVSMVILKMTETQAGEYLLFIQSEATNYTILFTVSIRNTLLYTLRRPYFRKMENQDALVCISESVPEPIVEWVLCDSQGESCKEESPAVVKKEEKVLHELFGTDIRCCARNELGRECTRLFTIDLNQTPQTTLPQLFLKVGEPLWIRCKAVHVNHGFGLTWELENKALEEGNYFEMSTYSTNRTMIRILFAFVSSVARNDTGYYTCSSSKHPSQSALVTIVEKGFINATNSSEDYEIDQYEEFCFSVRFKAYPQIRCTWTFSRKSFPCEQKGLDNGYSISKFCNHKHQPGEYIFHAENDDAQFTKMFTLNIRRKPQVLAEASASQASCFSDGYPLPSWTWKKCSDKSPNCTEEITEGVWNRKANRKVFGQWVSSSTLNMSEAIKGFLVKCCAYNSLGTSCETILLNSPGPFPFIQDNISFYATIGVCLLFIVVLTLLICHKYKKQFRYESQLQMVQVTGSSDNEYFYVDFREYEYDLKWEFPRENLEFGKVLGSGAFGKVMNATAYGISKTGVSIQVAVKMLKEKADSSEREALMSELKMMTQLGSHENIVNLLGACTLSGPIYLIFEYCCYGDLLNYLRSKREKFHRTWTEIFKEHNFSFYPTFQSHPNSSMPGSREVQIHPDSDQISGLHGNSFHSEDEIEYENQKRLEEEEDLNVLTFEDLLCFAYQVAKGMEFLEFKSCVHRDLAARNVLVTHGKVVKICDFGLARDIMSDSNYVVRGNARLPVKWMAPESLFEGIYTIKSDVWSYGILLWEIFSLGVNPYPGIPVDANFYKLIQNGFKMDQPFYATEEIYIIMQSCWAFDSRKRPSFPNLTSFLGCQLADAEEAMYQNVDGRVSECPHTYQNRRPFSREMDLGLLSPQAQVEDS

[3] = target: T1, Receptor-type tyrosine-protein kinase FLT3; assay: Inhibition of FLT3-ITD mutant (unknown origin)

Row | IC50 [1] [µM] | IC50 [2] [µM] | IC50 [3] [µM] | Compound
1 | > 10 | – | – | CCCCCCCC/C=C\CCCCCCCC(=O)N1CCN(C2CCN(c3ccc(Nc4nc(NC5CCOCC5)c(CC)nc4C(N)=O)cc3OC)CC2)CC1
2 | 0.0224 | – | – | CCc1nc(C(N)=O)c(Nc2ccc(N3CCC(N4CCN(C)CC4)CC3)c(OC)c2)nc1NC1CCOCC1 [GILTERITINIB]
3 | 0.0874 | 0.0061 | – | CCc1nc(C(N)=O)c(Nc2ccc(N3CCC(NC(=O)C45C6C7C4C4C5C6C74C(=O)OC)CC3)c(OC)c2)nc1NC1CCOCC1 (stereo not given)
4 | 0.188 | – | – | CCc1nc(C(N)=O)c(Nc2ccc(N3CCC(N4CCN(C(=O)C56CC7CC(CC(C7)C5)C6)CC4)CC3)c(OC)c2)nc1NC1CCOCC1
5 | 2.44 | – | – | CCCCCCCC/C=C\CCCCCCCC(=O)N1CCN(c2ccc(Nc3nc(NC4CCOCC4)c(CC)nc3C(N)=O)cc2OC)CC1
6 | 0.745 | – | – | CCCCCCCC/C=C\CCCCCCCC(=O)NC1CCN(c2ccc(Nc3nc(NC4CCOCC4)c(CC)nc3C(N)=O)cc2OC)CC1
7 | – | – | 0.511 | COc1cc(N)ccc1N1CCC(N2CCN(C(=O)OC(C)(C)C)CC2)CC1
8 | 0.111 | – | – | CCc1nc(C(N)=O)c(Nc2ccc(N3CCN(C(=O)C45C6C7C4C4C5C6C74C(=O)OC)CC3)c(OC)c2)nc1NC1CCOCC1 (stereo not given)

The remaining lines, values behind:

Row | Compound | IC50 [1] [µM] | IC50 [2] [µM] | IC50 [3] [µM]
9 | CCc1nc(C(N)=O)c(Nc2ccc(N3CCN(C(=O)C4c5ccccc5-c5ccccc54)CC3)c(OC)c2)nc1NC1CCOCC1 | 0.142 | – | –
10 | CCc1nc(C(N)=O)c(Nc2ccc(N3CCN(C(=O)C4CC5C=CC4C5)CC3)c(OC)c2)nc1NC1CCOCC1 (stereo not given) | 0.0634 | 0.00129 | –
11 | CCc1nc(C(N)=O)c(Nc2ccc(N3CCC(N4CCN(C(=O)C5CC6C=CC5C6)CC4)CC3)c(OC)c2)nc1NC1CCOCC1 (stereo not given) | 0.0546 | 0.00483 | –
12 | CCc1nc(C(N)=O)c(Nc2ccc(N3CCC(N4CCN(C(=O)C56C7C8C5C5C6C7C85C(=O)OC)CC4)CC3)c(OC)c2)nc1NC1CCOCC1 (stereo not given) | 0.0256 | 0.00212 | –
13 | CCc1nc(C(N)=O)c(Nc2ccc(N3CCN(C(=O)OC(C)(C)C)CC3)c(OC)c2)nc1NC1CCOCC1 | – | – | 0.37
14 | CCc1nc(C(N)=O)c(Nc2ccc(N3CCN(C(=O)C45CC6CC(CC(C6)C4)C5)CC3)c(OC)c2)nc1NC1CCOCC1 | 1.34 | – | –
15 | CCc1nc(C(N)=O)c(Nc2ccc(N3CCC(NC(=O)C4c5ccccc5-c5ccccc54)CC3)c(OC)c2)nc1NC1CCOCC1 | 0.147 | – | –
16 | CCc1nc(C(N)=O)c(Nc2ccc(N3CCC(NC(=O)C45CC6CC(CC(C6)C4)C5)CC3)c(OC)c2)nc1NC1CCOCC1 | 0.992 | – | –
17 | CCc1nc(C(N)=O)c(Nc2ccc(N3CCC(N4CCN(C(=O)C5c6ccccc6-c6ccccc65)CC4)CC3)c(OC)c2)nc1NC1CCOCC1 | 0.154 | – | –
18 | CCCCCCCC/C=C\CCCCCCCC(=O)O [OLEIC ACID] | – | – | 0.511
19 | CCc1nc(C(N)=O)c(Nc2ccc(N3CCC(NC(=O)C4CC5C=CC4C5)CC3)c(OC)c2)nc1NC1CCOCC1 (stereo not given) | 0.055 | 0.00306 | –
20 | CC(C)(C)OC(=O)N1CCNCC1 | – | – | 0.56
